Source: US8329681B2, “Methods and compositions for the efficient delivery of therapeutic agents to cells and animals” (University of Massachusetts, priority 2005, dated 2012)

Key:
HeLa cells [1] = assay: Transfection of pSV-β-gal plasmid, β-galactosidase reporter activity; assay type: cell-based, human
Protocol: (§1) Cationic lipids and the co-lipids in chloroform were dried under a stream of N2 gas and vacuum-desiccated for a minimum of 6 h to remove residual organic solvent. The dried lipid film was hydrated in sterile deionized water at cationic lipid concentration of 1 mM for a minimum of 12 h. Liposomes were vortexed to remove any adhering lipid film and probe sonicated until a clear translucent solution is formed. The pDNA solution was added to the liposomes, mixed properly by pipeting and shaken on a rotary shaker (15-30 mins.) before use.
(§2) Cells were seeded at a density of 20,000 (for HeLa cells), 16,000 (for A-549 cells), 8,000 (for FL83B cells) per well in a 96-well plate 18-24 h before transfection. An amount of 0.30 μg of pDNA was complexed with varying amounts of lipids (to give +/− ratios of 0.3:1, 1:1, 3:1 and 9:1) in plain OPTIMEM (total volume made up to 100 μl) and then shaken on a rotary shaker at room temperature for 20-30 minutes. The complexes were then added to the cells. After 5 h of incubation, 200 μl of complete medium containing 10% FBS in DMEM for HeLa and 10% FBS in F-12K for FL83B and A549 was added to the cells. The medium was changed after 24 h and the reporter gene activity was estimated 48 h after transfection. Cells were washed with PBS (100 μl) and lysed in […] lysis buffer (5× reporter lysis buffer diluted to 1×, working concentration). The β-galactosidase activity per well was estimated by adding 50 μl of 2× substrate solution (1.33 mg/ml of ONPG, 0.2 M sodium phosphate, pH 7.15 and 2 mM magnesium chloride) to the lysate in a 96-well plate. Absorbance of the product ortho-nitrophenol was measured at 420 nm. The absorbance values reported are the average values from two replicate experiments performed in the same plate on the same day. Each transfection experiment was performed three times on three different days to control for variations in transfection efficiency.
(§3) Briefly, the efficacy of various lipid formulations were tested in three cell lines A-549, FL83B and HeLa cells and the transfection efficiencies of the cationic liposomal formulations were compared with a commercially available transfection reagent (e.g., Lipofectamine 2000).

A549 cells = assay: as above; assay type: cell-based, human
Protocol: as §1, §2, §3

FL83B cells = assay: as above; assay type: cell-based, rat
Protocol: as §1, §2, §3

[2] = test system: A-549, FL83B and HeLa cells; assay: Transfection of pSV-β-gal plasmid, overall statement without cell line; assay type: cell-based; conditions: alone without any co-lipids
Protocol: as §2, with “efficiency. […]” for “efficiency.”

HeLa cells [3] = assay: Cell Titer 96 AQueous One Solution (MTS) cytotoxicity assay; assay type: cell-based, human; conditions: liposomal formulation alone or in combination with DOPE and DOPC as co-lipid
Protocol: Alternatively, the cytotoxicity of the lipids was measured using the Cell Titer 96® AQueous One Solution Cell Proliferation Assay. The Cell Titer 96® AQueous One Solution Reagent contains a tetrazolium compound [3-(4,5-dimethylthiazol-2-yl)-5-(3-carboxymethoxyphenyl)-2(4-sulfophenyl)-2H-tetrazolium, inner salt; MTS^17] and an electron coupling reagent (phenazine ethosulfate; PES). The cytotoxicity assay was performed in 96 well plates by maintaining the ratio of number of cells to amount of cationic lipid constant as in transfection experiments. MTS was added 24 hours after transfection. Cell Titer 96® AQueous One Solution Reagent (20 ul) was pipetted into each well of the 96-well assay plate containing the samples in 100 μl of culture medium. In case of HeLa cells the plates were incubated for 2 hours, whereas for FL83B cells, plates were incubated for 4 hours at 37° C. in a humidified, 5% CO2 atmosphere. Absorbance was then recorded at 490 nm.
In a second experiment, FL83B and HeLa cells were plated on 96 well plate 18 hours prior to transfection. Then, liposome was added to each well and incubated for 24 hours. Thereafter, Cell Titer 96® AQueous One Solution Reagent was added and incubated for 4 hours. The MTS tetrazolium compound (Owen's reagent) is bioreduced by viable cells into a colored formazan product that is soluble in tissue culture […]. The absorbance of the formazan was measured at 490 nm with a 96 well plate reader.

[4] = alone, lipid:DNA charge ratios 1:1 and 0.3:1
[5] = in combination with DOPE, charge ratio 3:1

In the case of `CCCCCCCCC=CCCCCCCCC(=O)OC(COC(=O)CCC(=O)OC1CCC2(C)C(=CCC3C2CCC2(C)C(C(C)CCCC(C)C)CCC32)C1)C[N+](C)(C)C.[I-]` (centres unmarked) [Lipid 8, N,N,N-Trimethyl-N-[2-(9(Z)-octadecanoyloxy),3-succinyloxy(4-cholesteryloxy)-propyl]ammonium iodide], the “transfection efficiency, fold less than Lipofectamine 2000” value (HeLa cells [1]; [4]) was roughly 1.5 fold, the “transfection efficiency compared with Lipofectamine 2000” value (HeLa cells [1]; in combination with DOPC, charge ratio of 1.1) was “comparable” and the “transfection efficiency, fold less than Lipofectamine 2000” value (HeLa cells [1]; [5]) was “more than 1.5 fold”. The “transfection efficiency compared with Lipofectamine 2000” value (A549 cells; [4]) was “one fold less”, the “transfection efficiency, fold less than Lipofectamine 2000” value (A549 cells; in combination with DOPC) was “about 1 fold” and the “transfection efficiency compared with Lipofectamine 2000” value (A549 cells; [5]) was “comparable”. For the same molecule, the “transfection efficiency compared with Lipofectamine 2000” value (FL83B cells; [4]) was “one fold less”, the “transfection efficiency compared with Lipofectamine 2000” value (FL83B cells; in combination with DOPC, charge ratio 9.0:1.0 to 0.3:1.0) was “about two fold less” and the “transfection efficiency, fold less than Lipofectamine 2000” value (FL83B cells; [5]) was “more than 1.5 fold”. The “transfection efficiency of lipid alone compared with lipid in combination with DOPE and DOPC” value [2] was “about as efficient” and the “cytotoxicity as compared to a control” value (HeLa cells [3]) was “non-toxic”.
